One assay addresses KRAS G13D (Homo sapiens (Human), UniProt P01116+P62937, G13D). The assay can be described thus: Ras-Raf disruption/FRET/MOA assay (BRAF RBD, Cyclophilin A). In kind it is biochemical. Conditions: read-out: KRAS G13D FRET data IC50. Here is the method: (§1) Compound is present in plate wells as a 10-point 3-fold dilution series starting at a final concentration of 30 μM. After incubation at 25° C. for 3 hours, a mixture of Anti-His Eu—W1024 and anti-GST allophycocyanin is then added to assay sample wells at final concentrations of 10 nM and 50 nM, respectively, and the reaction incubated for an additional 1.5 hours. […] Compounds that facilitate disruption of a Ras: RAF complex are identified as those eliciting a decrease in the TR-FRET ratio relative to DMSO control wells.
(§2) Disruption of B-Raf Ras-Binding Domain (BRAF^RBD) Interaction with K-Ras by Compounds of the Invention (Also Called a FRET Assay or an MOA Assay)
(§3) Note—The following protocol describes a procedure for monitoring disruption of K-Ras G12C (GMP-PNP) binding to BRAF^RBD by a compound of the invention. This protocol may also be executed substituting other Ras proteins or nucleotides.
(§4) The purpose of this biochemical assay was to measure the ability of test compounds to facilitate ternary complex formation between a nucleotide-loaded K-Ras isoform and Cyclophilin A; the resulting ternary complex disrupts binding to a BRAF^RBD construct, inhibiting K-Ras signaling through a RAF effector. Data is reported as IC50 values.
(§5) In assay buffer containing 25 mM HEPES pH 7.3, 0.002% Tween20, 0.1% BSA, 100 mM NaCl and 5 mM MgCl2, tagless Cyclophilin A, His6-K-Ras-GMPPNP, and GST-BRAF^RBD were combined in a 384-well assay plate at final concentrations of 25 μM, 12.5 nM and 50 nM, respectively. Compound was present in plate wells as a 10-point 3-fold dilution series starting at a final concentration of 30 μM. After incubation at 25° C. for 3 hours, a mixture of Anti-His Eu—W1024 and anti-GST allophycocyanin was then added to assay sample wells at final concentrations of 10 nM and 50 nM, respectively, and the reaction incubated for an additional 1.5 hours. […] Compounds that facilitate disruption of a K-Ras: RAF complex were identified as those eliciting a decrease in the TR-FRET ratio relative to DMSO control wells.

The target in the next assay is NRAS G12C (Homo sapiens (Human), UniProt P01111+P62937, G12C). The assay is described as above. It is filed as biochemical. To be noted: read-out: NRAS G12C FRET data IC50. Here is the method:
as §1, §2, §3, §4, §5

Another assay addresses KRAS G12S (Homo sapiens (Human), UniProt P01116+P62937, G12S). The assay is described as above. To be noted: read-out: KRAS G12S FRET IC50. It is filed as biochemical. The protocol: as §1, §2, §3, §4, §5
The target in a further assay is KRAS G13C (Homo sapiens (Human), UniProt P01116+P62937, G13C). Described as above. It is filed as biochemical. Conditions: read-out: KRAS G13C FRET IC50. The protocol:
as §1, §2, §3, §4, §5

A further assay addresses KRAS G12V (Homo sapiens (Human), UniProt P01116+P62937, G12V). Described as above. It is filed as biochemical. To be noted: read-out: KRAS G12V FRET IC50. The protocol: as §1, §2, §3, §4, §5
A further assay addresses KRAS G12D (Homo sapiens (Human), UniProt P01116+P62937, G12D). The description is as above. In kind it is biochemical. Conditions: read-out: KRAS G12D FRET IC50. Here is the method:
as §1, §2, §3, §4, §5

Another assay has as its target KRAS WT (Homo sapiens (Human), UniProt P01116+P62937). Described as above. Conditions: read-out: KRAS WT FRET data IC50. It is filed as biochemical. Here is the method: as §1, §2, §3, §4, §5
The subject of assay [1] is Capan-1 cells (K-Ras G12V). The assay can be described thus: CellTiter-Glo cell viability, Capan-1. Conditions: Homo sapiens, CAPAN-1, 120 h, read-out: Capan-1 Cell Viability IC50. It is filed as cell-based, human. The protocol: Note—The following protocol describes a procedure for monitoring cell viability of K-Ras mutant cancer cell lines in response to a compound of the invention. Other RAS isoforms may be employed, though the number of cells to be seeded will vary based on cell line used.
Test compounds (132.5 nl) were directly dispensed into the assay plates containing cells. […] On day 5, assay plates and their contents were equilibrated to room temperature for approximately 30 minutes. […] Luminescence was measured using the PerkinElmer Enspire. Data were normalized by the following: (Sample signal/Avg. DMSO)*100. The data were fit using a four-parameter logistic fit.
In general terms: ATP-based viability assays read luminescence as a measure of living cells.

Assay [2] has as its system K-Ras G12C (NCI-H358 cells). Nature of the assay: Potency assay: pERK in NCI-H358 cells. It is filed as cell-based, human. To be noted: Homo sapiens; NCI-H358 cells, 4 hours; read-out: pERK EC50 (H358 KRAS G12C). Summed up: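 Cells plated the day before were exposed for 4 h at 37° C, 5% CO2 to a 10-point, 3-fold DMSO dilution series (10 mM top stock), in duplicate. Phospho-ERK was read by AlphaLISA SureFire Ultra or by In-Cell Western with DRAQ5 DNA stain, and IC50 came from a 4-parameter sigmoidal fit.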

The next assay deals with NCI-H358 (K-Ras G12C). Nature of the assay: CellTiter-Glo cell viability assay, NCI-H358. It is filed as cell-based, human. Conditions: Homo sapiens, NCI-H358, 120 h, 5-day treatment; read-out: H358 Cell Viability assay data (K-Ras G12C, IC50). The gist of the method: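 Cells seeded, compound added directly to plates; day 5: plates to RT ~30 min, CellTiter-Glo luminescence; (sample/avg DMSO)*100; 4-parameter fit.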

Like-named read-outs stand apart in the source and are kept apart here.

Sequence of KRAS WT (P01116 other isoform, or with tags, fused parts or gaps): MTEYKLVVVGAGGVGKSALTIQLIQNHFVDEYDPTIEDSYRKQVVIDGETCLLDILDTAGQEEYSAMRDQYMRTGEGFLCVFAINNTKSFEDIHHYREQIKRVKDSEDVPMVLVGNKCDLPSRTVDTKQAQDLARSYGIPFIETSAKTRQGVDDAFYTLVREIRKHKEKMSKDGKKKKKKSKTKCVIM
Sequence of KRAS WT (P62937 whole entry, canonical isoform): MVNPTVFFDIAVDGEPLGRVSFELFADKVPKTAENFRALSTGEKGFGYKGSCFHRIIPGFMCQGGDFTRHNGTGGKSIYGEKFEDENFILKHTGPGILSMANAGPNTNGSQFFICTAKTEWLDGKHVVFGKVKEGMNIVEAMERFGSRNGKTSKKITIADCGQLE
Sequence of KRAS G12V (P01116 other isoform, or with tags, fused parts or gaps G12V): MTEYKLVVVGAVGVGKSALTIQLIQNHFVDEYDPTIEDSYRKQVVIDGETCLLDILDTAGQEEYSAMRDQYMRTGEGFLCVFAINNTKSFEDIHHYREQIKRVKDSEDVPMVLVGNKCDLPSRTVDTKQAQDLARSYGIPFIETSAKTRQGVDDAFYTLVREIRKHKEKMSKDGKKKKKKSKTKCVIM
Sequence of KRAS G12V (P62937 whole entry): as the sequence (P62937 whole entry, canonical isoform) above
Sequence of KRAS G12S (P01116 other isoform, or with tags, fused parts or gaps G12S): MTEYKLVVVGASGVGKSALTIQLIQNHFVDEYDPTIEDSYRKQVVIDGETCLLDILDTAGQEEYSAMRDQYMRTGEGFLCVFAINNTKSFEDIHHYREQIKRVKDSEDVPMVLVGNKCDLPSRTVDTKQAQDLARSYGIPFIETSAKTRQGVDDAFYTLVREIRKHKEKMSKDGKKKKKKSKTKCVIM
Sequence of KRAS G12S (P62937 whole entry): as the sequence (P62937 whole entry, canonical isoform) above
Sequence of KRAS G13C (P01116 other isoform, or with tags, fused parts or gaps G13C): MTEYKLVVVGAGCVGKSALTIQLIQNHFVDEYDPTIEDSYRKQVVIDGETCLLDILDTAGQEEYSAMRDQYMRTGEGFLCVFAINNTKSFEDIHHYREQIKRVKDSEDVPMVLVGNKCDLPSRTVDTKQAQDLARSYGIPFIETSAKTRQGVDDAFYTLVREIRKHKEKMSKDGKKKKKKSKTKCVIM
Sequence of KRAS G13C (P62937 whole entry): as the sequence (P62937 whole entry, canonical isoform) above
Sequence of KRAS G13D (P01116 other isoform, or with tags, fused parts or gaps G13D): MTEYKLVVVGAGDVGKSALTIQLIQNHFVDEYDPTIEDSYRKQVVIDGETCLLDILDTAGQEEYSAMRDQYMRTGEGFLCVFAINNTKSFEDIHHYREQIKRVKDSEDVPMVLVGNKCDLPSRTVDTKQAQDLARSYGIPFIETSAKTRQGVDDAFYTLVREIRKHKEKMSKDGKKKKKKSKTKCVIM
Sequence of KRAS G13D (P62937 whole entry, the tested form may be a part): as the sequence (P62937 whole entry, canonical isoform) above
Sequence of NRAS G12C (P01111 whole entry G12C): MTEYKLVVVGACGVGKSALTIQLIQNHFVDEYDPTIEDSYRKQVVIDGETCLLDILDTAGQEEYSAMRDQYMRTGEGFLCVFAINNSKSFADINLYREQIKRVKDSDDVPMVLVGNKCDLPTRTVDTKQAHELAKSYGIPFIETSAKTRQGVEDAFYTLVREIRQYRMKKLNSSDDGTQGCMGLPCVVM
Sequence of NRAS G12C (P62937 whole entry): as the sequence (P62937 whole entry, canonical isoform) above
Sequence of KRAS G12D (P01116 other isoform, or with tags, fused parts or gaps G12D): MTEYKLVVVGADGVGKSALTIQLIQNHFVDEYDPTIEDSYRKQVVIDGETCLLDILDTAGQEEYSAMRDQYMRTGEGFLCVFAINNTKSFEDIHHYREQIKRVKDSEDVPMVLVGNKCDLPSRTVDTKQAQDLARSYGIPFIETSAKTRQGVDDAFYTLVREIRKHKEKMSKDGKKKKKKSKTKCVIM
Sequence of KRAS G12D (P62937 whole entry): as the sequence (P62937 whole entry, canonical isoform) above

Consider `CCn1c(-c2cnccc2COC)c2c3cc(ccc31)-c1cc(O)cc(c1)C[C@H](NC(=O)[C@H](C(C)C)N(C)C(=O)[C@H]1CCN(C(C)C)C1)C(=O)N1CCC[C@H](N1)C(=O)OCC(C)(C)C2` [Compound A41], for which the IC50 (usually the point on the concentration scale where inhibition reaches its midpoint) lay within 0.01 to 0.1 µM on KRAS G13D and 0.1 to 1 µM at NRAS G12C.
For `CCn1c(-c2cccnc2COC)c2c3cc(ccc31)-c1cc(O)cc(c1)C[C@H](NC(=O)[C@H](C(C)C)N(C)C(=O)[C@H](N)CCCNC(=N)N)C(=O)N1CCC[C@H](N1)C(=O)OCC(C)(C)C2` [Compound A48], at KRAS G13D, the IC50 lay in the range of 0.1 to 1 µM.
As to `CCn1c(-c2cccnc2[C@H](C)OC)c2c3cc(ccc31)-c1cc(O)cc(c1)C[C@H](NS(=O)(=O)N1CCC1)C(=O)N1CCC[C@H](N1)C(=O)OCC(C)(C)C2` [Compound A189], the IC50 on KRAS G12S, at KRAS G13C, on KRAS G13D, at KRAS G12V, at KRAS G12D and at KRAS WT was over 10 µM each time. Also, the IC50 is over 10 µM at NRAS G12C and over 10 µM in assay [1] (K-Ras G12V, 5-day treatment).
Consider `CCn1c(-c2cccnc2[C@H](C)OC)c2c3cc(ccc31)-c1cc(O)cc(c1)C[C@H](NS(=O)(=O)C1CS(=O)(=O)C1)C(=O)N1CCC[C@H](N1)C(=O)OCC(C)(C)C2` [Compound A191], for which the IC50 on KRAS G12S, at KRAS G13C, at KRAS G13D, on KRAS G12V, at KRAS G12D and on KRAS WT was over 10 µM each time. For the same molecule, the IC50 on NRAS G12C is over 10 µM; in assay [1] (K-Ras G12V, 5-day treatment), over 10 µM.
For `CCn1c(-c2cccnc2[C@H](C)OC)c2c3cc(ccc31)-c1cc(O)cc(c1)C[C@H](NS(=O)(=O)c1ccc(O)cc1)C(=O)N1CCC[C@H](N1)C(=O)OCC(C)(C)C2` [Compound A195], the IC50 on KRAS G12S, on KRAS G13C, at KRAS G13D, at KRAS G12V, at KRAS G12D and at KRAS WT was over 10 µM throughout. For the same molecule, the IC50 is over 10 µM at NRAS G12C and over 10 µM in assay [1] (K-Ras G12V, 5-day treatment).
Regarding `CCn1c(-c2cccnc2[C@H](C)OC)c2c3cc(ccc31)-c1cc(O)cc(c1)C[C@H](NS(=O)(=O)C1CC1)C(=O)N1CCC[C@H](N1)C(=O)OCC(C)(C)C2` [Compound A196], the IC50 on KRAS G12S, at KRAS G13C, on KRAS G13D, on KRAS G12V, on KRAS G12D and at KRAS WT was over 10 µM each time. Also, the IC50 at NRAS G12C was over 10 µM; in assay [1] (K-Ras G12V, 5-day treatment), over 10 µM.
On to `CCn1c(-c2cccnc2[C@H](C)OC)c2c3cc(ccc31)-c1cc(O)cc(c1)C[C@H](NS(=O)(=O)c1cn(C)c(C)n1)C(=O)N1CCC[C@H](N1)C(=O)OCC(C)(C)C2` [Compound A197], for which, in assay [2], the EC50 – broadly, the concentration giving half of the maximal effect – is under 5 µM. For the same molecule, the IC50 at KRAS G12S was over 10 µM; at KRAS G13D, over 10 µM; on KRAS G12V, over 10 µM; on KRAS G12D, over 10 µM; in [1] (K-Ras G12V, 5-day treatment), over 10 µM.
For `CCn1c(-c2cccnc2[C@H](C)OC)c2c3cc(ccc31)-c1cc(O)cc(c1)C[C@H](NS(=O)(=O)CC1CC1)C(=O)N1CCC[C@H](N1)C(=O)OCC(C)(C)C2` [Compound A200], the IC50 on KRAS G12S was over 10 µM; at KRAS G13D, over 10 µM; at KRAS G12V, over 10 µM; at KRAS G12D, over 10 µM; in assay [1], 1 to 10 µM.
On to `CCn1c(-c2cccnc2[C@H](C)OC)c2c3cc(ccc31)-c1cc(O)cc(c1)C[C@H](NC(=O)[C@H](C(C)C)N(C)C(=O)[C@@H]1CN(C(=O)OC)C[C@@H]1C)C(=O)N1CCC[C@H](N1)C(=O)OCC(C)(C)C2` [Compound A325], for which the IC50 at KRAS G12S fell in the range of 0.01 to 0.1 µM; at KRAS G13D, 0.01 to 0.1 µM; on KRAS G12D, 0.01 to 0.1 µM; on KRAS WT, 0.01 to 0.1 µM; in assay [1] (K-Ras G12V, 5-day treatment) it was 0.01 to 0.1 µM.
As for `C=CC(=O)N1CC[C@H](C(=O)N(C)[C@H](C(=O)N[C@H]2Cc3cc(sn3)-c3ccc4c(c3)c(c(-c3cccnc3[C@H](C)OC)n4CC)CC(C)(C)COC(=O)[C@@H]3CCCN(N3)C2=O)C(C)C)C1` [Compound A340], the EC50 in assay [2] was under 5 µM. The half-inhibitory concentration (IC50) in the assay on NCI-H358 (K-Ras G12C) was 0.1 to 1 µM.
As for `CCn1c(-c2cccnc2[C@H](C)OC)c2c3cc(ccc31)-c1cc(O)cc(c1)C[C@H](NC(=O)[C@H](C(C)C)N(C)C(=O)[C@H]1CCN(C(=O)[C@@H]3CCCN3C)C1)C(=O)N1CCC[C@H](N1)C(=O)OCC(C)(C)C2` [Compound A385], the EC50 in assay [2] was under 5 µM. In addition, the IC50 with NCI-H358 (K-Ras G12C) was under 0.01 µM.
Regarding `CCn1c(-c2cccnc2[C@H](C)OC)c2c3cc(ccc31)-c1cc(O)cc(c1)C[C@H](NC(=O)[C@H](C(C)C)N(C)C(=O)[C@@H]1CCN(C(=O)OC)[C@@H]1c1ccccc1)C(=O)N1CCC[C@H](N1)C(=O)OCC(C)(C)C2` [Compound A501], the EC50 in assay [2] is under 5 µM. Also, the IC50 on KRAS G13D lay within 0.01 to 0.1 µM; on KRAS G12D it was 0.01 to 0.1 µM; on KRAS WT, 0.01 to 0.1 µM; in assay [1] (K-Ras G12V, 5-day treatment), 0.1 to 1 µM.
For the molecule `CCn1c(-c2cccnc2[C@H](C)OC)c2c3cc(ccc31)-c1csc(n1)C[C@H](NC(=O)[C@H](C(C)C)N(C)C(=O)N1CC[C@@H]1CN(C)C)C(=O)N1CCC[C@H](N1)C(=O)OCC(C)(C)C2` [Compound A502], the concentration for a half-maximal effect (EC50) in assay [2] is under 5 µM. Besides, the IC50 in the assay on NCI-H358 (K-Ras G12C) was under 0.01 µM; in assay [1] (K-Ras G12V, 5-day treatment), 0.1 to 1 µM.
Turning to `CCn1c(-c2cccnc2[C@H](C)OC)c2c3cc(ccc31)-c1csc(n1)C[C@H](NC(=O)[C@H](C(C)C)N(C)C(=O)N1CC3(CC(O)C3)C1)C(=O)N1CCC[C@H](N1)C(=O)OCC(C)(C)C2` [Compound A510], the concentration for a half-maximal effect (EC50) in [2] is under 5 µM. For the same molecule, in the assay with NCI-H358 (K-Ras G12C), the IC50 lay in the range of 0.01 to 0.1 µM.
For the molecule `CCn1c(-c2cccnc2[C@H](C)OC)c2c3cc(ccc31)-c1csc(n1)C[C@H](NC(=O)[C@H](C(C)C)N(C)C(=O)N1CCN3CCOC[C@H]3C1)C(=O)N1CCC[C@H](N1)C(=O)OCC(C)(C)C2` [Compound A548], the IC50 was 0.1 to 1 µM in the assay with NCI-H358 (K-Ras G12C) and 0.01 to 0.1 µM in assay [1] (K-Ras G12V, 5-day treatment).
With `CCn1c(-c2cccnc2[C@H](C)OC)c2c3cc(ccc31)-c1csc(n1)C[C@H](NC(=O)[C@H](C(C)C)N(C)C(=O)N1CC(N(C)S(C)(=O)=O)C1)C(=O)N1CCC[C@H](N1)C(=O)OCC(C)(C)C2` [Compound A550], the EC50 in assay [2] is under 5 µM. Moreover, the IC50 with NCI-H358 (K-Ras G12C) was under 0.01 µM.

Values taken from patent US20250195521A1 (Revolution Medicines, Inc., priority 2020, published 2025).
